Measurements: patent publication US5221677A, “5-lipoxygenase inhibitors quinoline or isoquinoline derivatives” (Imperial Chemical Industries PLC, priority 1989, dated 1993)

Key:
5-LO [1] = experiment: Ex vivo assay: administration of test compound, blood collection, A23187 challenge, LTB4 radioimmunoassay (test c); format: in vivo; settings: oral
5-LO [2] = experiment: Liberation of LTB4 induced by zymosan within an air pouch in male rats (test g); format: in vivo; settings: 3 h, oral, rat air pouch
Description: g) An in vivo system involving measuring the effects of a test compound administered orally against the liberation of LTB4 induced by zymosan within an air pouch generated within the subcutaneous tissue of the back of male rats. The rats are anaesthetised and air pouches are formed by the injection of sterile air (20 ml). A further injection of air (10 ml) is similarly given after 3 days). At 6 days after the initial air injection the test compound is administered (usually orally as the supsension produced when a solution of the test compound in dimethylsulphoxide is added to hydroxypropylmethylcellulose), followed by the intrapouch injection of zymosan (1 ml of a 1% suspension in physiological saline). After 3 hours the rats are killed, the air pouches are lavaged with physiological saline, and the specific radioimmunoassay described above is used to assay LTB4 in washings. This test provides an indication of inhibitory effects against 5-LO in an inflammatory milieu.

5-LO [3] = experiment: In vitro heparinised human blood assay, A23187 challenge, LTB4 radioimmunoassay (test b); format: cell-based
Description: b) An in vitro assay system involving incubating a test compound with heparinised human blood, prior to challenge with the calcium ionophore A23187 and then indirectly measuring the inhibitory effects on 5-LO by assaying the amount of LTB4 using the specific radioimmunoassay described by Carey and Forder (F. Carey and R. A. Forder, Brit. J. Pharmacol. 1985, 84, 34P) which involves the use of a protein-LTB4 conjugate produced using the procedure of Young et alia (Prostaglandins, 1983, 26(4), 605-613). The effects of a test compound on the enzyme cyclooxygenase (which is involved in the alternative metabolic pathway for arachidonic acid and gives rise to prostaglandins, thromboxanes and related metabolites) may be measured at the same time using the specific radioimmunoassay for thromboxane B2 (TxB2) described by Carey and Forder (see above). This test provides an indication of the effects of a test compound against 5-LO and also cyclooxygenase in the presence of blood cells and proteins. It permits the selectivity of the inhibitory effect on 5-LO or cyclooxygenase to be assessed.

COC1(c2cccc(Sc3ccc4c(ccc(=O)n4C)c3)c2)CCOCC1 [Example 1, 4-[3-(1,2-dihydro-1-methyl-2-oxoquinolin-6-ylthio)phenyl]-4-methoxytetrahydropyran]
ED50 (5-LO [1]): 1.5 mg/kg
ED50 (5-LO [2]): 1 mg/kg
IC50 (5-LO [3]): < 40 nM
